Results published in article PMC11079024, “Identification of a family of species-selective complex I inhibitors as potential anthelmintics” (Nature Communications, 2024).
Read-outs that look alike come from different tables or passages of the source.

How the values were obtained:
in vitro = conditions: human; for viability at 2 days, 3.13 µM / viability at 2 days, 6.25 µM / viability at 2 days, 12.5 µM / viability at 2 days, 25 µM / viability at 2 days, 50 µM / viability at 2 days, 100 µM: HEK293 cells (Flp-In-293)
[1] = biological target: B. taurus (heart) complex I (Bos taurus, UniProt P03887+P17694+P42026); test: biochemical; format: biochemical; conditions: for IC50: B. taurus heart mitochondria, estimated from fitted dose-response curves, read-out: B. taurus Complex I IC50; for activity at 0.0001 µM / activity at 0.0005 µM / activity at 0.001 µM / activity at 0.0025 µM / activity at 0.005 µM / activity at 0.013 µM / activity at 0.025 µM / activity at 0.063 µM / activity at 0.125 µM / activity at 0.313 µM / activity at 0.625 µM / activity at 1.5 µM / activity at 3 µM / activity at 15 µM / activity at 37.5 µM / activity at 75 µM: read-out: B. taurus mitochondrial complex I activity; for Log IC50 B. taurus complex I: log10 of IC50 in µM, B. taurus mitochondria
How it was run: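 Complex I activity followed as DCIP reduction (600 nm, 30 s reads, 15 min) with 80 μM NADH and 60 μM decylubiquinone in 25 mM KPi pH 7.5 containing 2 μM antimycin A and 2 mM KCN. Freeze-thawed mouse or bovine heart mitochondria at 0.2 mg/mL; initial-rate percent of solvent control, single-point 100 μM or dose-response.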

L1 wild-type C. elegans [2] = test: microbe, parasite or virus in culture; conditions: Caenorhabditis elegans, read-out: C. elegans KCN Survival Assay LC50, estimated from fitted dose-response curves; mean of at least two biological replicates
L1 wild-type C. elegans [3] = conditions: for Screen "Hit": 50 μM
[4] = system: ben-1 mutant (ECA882) C. elegans; test: microbe, parasite or virus in culture; conditions: Caenorhabditis elegans
How it was run: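 Development and viability scored from single well images as total worm pixels divided by the matching DMSO control value, mean of ≥3 replicates. Worms added as synchronized L1s to HB101 suspension in liquid NGM with compound (1% DMSO v/v), grown 6 days at 20 °C with shaking.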

[5] = HEK293 Cell Viability Assay LC50, HEK293 cells, estimated from fitted dose-response curves, mean of at least two biological replicates
[6] = KCN survival assay, hit = relative motility below 0.25
[7] = Dose 0.2 µM, mean of at least three biological replicates
[8] = read-out: C. elegans (ben-1) Development & Viability Assay LC50
[9] = read-out: C. elegans ben-1 log10 LC50 (converted)
[10] = read-out: C. elegans ben-1(e1880) development/viability

Sequence of B. taurus (heart) complex I (P03887 whole entry): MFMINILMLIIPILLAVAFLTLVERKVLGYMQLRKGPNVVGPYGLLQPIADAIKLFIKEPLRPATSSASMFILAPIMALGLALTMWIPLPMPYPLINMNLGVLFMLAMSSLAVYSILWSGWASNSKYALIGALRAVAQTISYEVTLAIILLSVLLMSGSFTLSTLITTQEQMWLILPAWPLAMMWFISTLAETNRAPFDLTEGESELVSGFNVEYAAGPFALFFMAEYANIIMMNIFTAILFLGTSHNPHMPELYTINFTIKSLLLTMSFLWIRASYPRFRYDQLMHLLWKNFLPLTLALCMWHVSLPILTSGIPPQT
Sequence of B. taurus (heart) complex I (P17694 34-463): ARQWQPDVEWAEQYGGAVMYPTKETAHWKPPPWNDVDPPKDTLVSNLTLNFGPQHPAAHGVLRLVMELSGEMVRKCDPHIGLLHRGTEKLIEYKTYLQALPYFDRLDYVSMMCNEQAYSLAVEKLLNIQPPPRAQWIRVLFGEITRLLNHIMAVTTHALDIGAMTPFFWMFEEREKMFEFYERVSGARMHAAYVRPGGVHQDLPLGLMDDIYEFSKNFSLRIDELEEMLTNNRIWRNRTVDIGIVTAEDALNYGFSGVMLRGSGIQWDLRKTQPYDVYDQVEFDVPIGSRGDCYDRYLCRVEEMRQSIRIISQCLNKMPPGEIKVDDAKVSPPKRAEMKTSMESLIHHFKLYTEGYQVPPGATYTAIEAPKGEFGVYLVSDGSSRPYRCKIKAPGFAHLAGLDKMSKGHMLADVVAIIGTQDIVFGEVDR
Sequence of B. taurus (heart) complex I (P42026 38-216): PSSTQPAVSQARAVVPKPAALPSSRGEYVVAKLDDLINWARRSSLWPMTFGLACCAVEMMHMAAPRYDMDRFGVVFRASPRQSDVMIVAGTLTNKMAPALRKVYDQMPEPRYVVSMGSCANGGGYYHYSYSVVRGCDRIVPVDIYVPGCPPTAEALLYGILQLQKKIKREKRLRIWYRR

With `CCCOc1ccc(Cn2cnc3ccccc32)cc1` [Compound 7355741] the CC50 at 2 days (in vitro; [5]) was 76.2 µM, the viability at 2 days, 3.13 µM (in vitro; HEK293 viability) was 99.8% and the viability at 2 days, 6.25 µM (in vitro; HEK293 viability) was 100%. For the same molecule, the viability at 2 days, 12.5 µM (in vitro; HEK293 viability) was 100%, the viability at 2 days, 25 µM (in vitro; HEK293 viability) was 100% and the viability at 2 days, 50 µM (in vitro; HEK293 viability, Dose 50 µM) was 78.9%. The viability at 2 days, 100 µM (in vitro; HEK293 viability) was 30.3%, the IC50 [1] was 3.07 µM and the activity at 0.0001 µM [1] was 95.3%. It also gave an activity at 0.0005 µM [1] of 97.8%, an activity at 0.001 µM [1] of 102% and an activity at 0.0025 µM [1] of 105%. For the same molecule, the activity at 0.005 µM [1] was 102%, the activity at 0.013 µM [1] was 104% and the activity at 0.025 µM [1] was 109%. The activity at 0.063 µM [1] was 57.4%, the activity at 0.125 µM [1] was 101% and the activity at 0.313 µM [1] was 97.1%. The activity at 0.625 µM [1] was 86%, the activity at 1.5 µM [1] was 75.9% and the activity at 3 µM [1] was 37%. For the same molecule, the activity at 15 µM [1] was 13.2%, the activity at 37.5 µM [1] was 1.26% and the activity at 75 µM [1] was 2.32%. The “Log IC50 B. taurus complex I” value [1] was 0.49 µM, the LC50 (L1 wild-type C. elegans [2]) was 7 µM and the “Screen "Hit"” value (L1 wild-type C. elegans [3]; [6]) was “Y (hits were identified as compounds that reduced relative motility below 0.25 (75% reduction))”. For the same molecule, the “C. elegans KCN Survival” value (L1 wild-type C. elegans [3]; [7]) was 0.923, the “C. elegans KCN Survival” value (L1 wild-type C. elegans [3]; Dose 0.39 µM) was 0.831 and the “C. elegans KCN Survival” value (L1 wild-type C. elegans [3]; Dose 1.56 µM) was 0.783. For the same molecule, the “C. elegans KCN Survival” value (L1 wild-type C. elegans [3]; Dose 3.13 µM) was 1.007, the “C. elegans KCN Survival” value (L1 wild-type C. elegans [3]; Dose 6.25 µM) was 0.620 and the “C. elegans KCN Survival” value (L1 wild-type C. elegans [3]; Dose 12.5 µM) was 0.122. The “C. elegans KCN Survival” value (L1 wild-type C. elegans [3]; Dose 25 µM) was 0.000, the “C. elegans KCN Survival” value (L1 wild-type C. elegans [3]; Dose 50 µM) was 0.000 and the “C. elegans KCN Survival” value (L1 wild-type C. elegans [3]; Dose 100 µM) was 0.000. It also gave an LC50 [4, 8] of 85.3 µM and an LC50 [4, 9] of 85.3 µM.
Work on `Cc1ccc(OCCn2cnc3ccccc32)c(C)c1` [Compound 7706808] yielded a CC50 at 2 days (in vitro) of 89.1 µM, a viability at 2 days, 3.13 µM (in vitro; HEK293 viability) of 100% and a viability at 2 days, 6.25 µM (in vitro; HEK293 viability) of 100%. The viability at 2 days, 12.5 µM (in vitro; HEK293 viability) was 100%, the viability at 2 days, 25 µM (in vitro; HEK293 viability) was 100% and the viability at 2 days, 100 µM (in vitro; HEK293 viability) was 36.2%. For the same molecule, the viability (in vitro; HEK293 viability, Dose 50 µM) was 94.6%, the IC50 [1] was 8.48 µM and the activity at 0.0001 µM [1] was 97.5%. For the same molecule, the activity at 0.0005 µM [1] was 94.8%, the activity at 0.001 µM [1] was 99.1% and the activity at 0.0025 µM [1] was 97%. For the same molecule, the activity at 0.005 µM [1] was 95.6%, the activity at 0.013 µM [1] was 97.8% and the activity at 0.025 µM [1] was 90.5%. The activity at 0.063 µM [1] was 96%, the activity at 0.125 µM [1] was 93.5% and the activity at 0.313 µM [1] was 91.4%. For the same molecule, the activity at 0.625 µM [1] was 82.8%, the activity at 1.5 µM [1] was 81.2% and the activity at 3 µM [1] was 69.4%. It also gave an activity at 15 µM [1] of 30.6%, an activity at 37.5 µM [1] of 11.4% and an activity at 75 µM [1] of 6.37%. The “Log IC50 B. taurus complex I” value [1] was 0.93 µM, the LC50 (L1 wild-type C. elegans [2]) was 12 µM and the “Screen "Hit"” value (L1 wild-type C. elegans [3]; hit = relative motility below 0.25 3 hours after removal of KCN) was “Y (hits were identified as compounds that reduced relative motility below 0.25 (75% reduction))”. The “C. elegans KCN Survival” value (L1 wild-type C. elegans [3]; [7]) was 0.957, the “C. elegans KCN Survival” value (L1 wild-type C. elegans [3]; Dose 0.39 µM) was 1.031 and the “C. elegans KCN Survival” value (L1 wild-type C. elegans [3]; Dose 1.56 µM) was 1.000. The “C. elegans KCN Survival” value (L1 wild-type C. elegans [3]; Dose 3.13 µM) was 0.998, the “C. elegans KCN Survival” value (L1 wild-type C. elegans [3]; Dose 6.25 µM) was 0.894 and the “C. elegans KCN Survival” value (L1 wild-type C. elegans [3]; Dose 12.5 µM) was 0.483. For the same molecule, the “C. elegans KCN Survival” value (L1 wild-type C. elegans [3]; Dose 25 µM) was 0.132, the “C. elegans KCN Survival” value (L1 wild-type C. elegans [3]; Dose 50 µM) was 0.135 and the “C. elegans KCN Survival” value (L1 wild-type C. elegans [3]; Dose 100 µM) was 0.199. The LC50 [4, 8] was over 1000 µM, the viability at 1 µM [4, 10] was 100% and the viability at 2 µM [4, 10] was 96.2%. For the same molecule, the viability at 3.9 µM [4, 10] was 97%, the viability at 15.6 µM [4, 10] was 98.9% and the viability at 31.3 µM [4, 10] was 97.3%. For the same molecule, the viability at 62.5 µM [4, 10] was 93.8%, the viability at 125 µM [4, 10] was 89.7% and the viability at 250 µM [4, 10] was 94.6%. For the same molecule, the viability at 500 µM [4, 10] was 76.7%, the viability at 1000 µM [4, 10] was 69.9% and the LC50 ([4]; read-out: C. elegans ben-1 LC50) was over 500 µM. It also gave an LC50 [4, 9] of over 500 µM.
With `Cc1ccccc1OCCCCn1cnc2ccccc21` [Compound 7732524] the CC50 at 2 days (in vitro; [5]) was 49.9 µM, the viability at 2 days, 3.13 µM (in vitro; HEK293 viability) was 100% and the viability at 2 days, 6.25 µM (in vitro; HEK293 viability) was 100%. For the same molecule, the viability at 2 days, 12.5 µM (in vitro; HEK293 viability) was 100%, the viability at 2 days, 25 µM (in vitro; HEK293 viability) was 93.2% and the viability at 2 days, 50 µM (in vitro; HEK293 viability, Dose 50 µM) was 48.1%. It also gave a viability at 2 days, 100 µM (in vitro; HEK293 viability) of 13.7%, an IC50 [1] of 0.31 µM and an activity at 0.0001 µM [1] of 96.6%. For the same molecule, the activity at 0.0005 µM [1] was 102%, the activity at 0.001 µM [1] was 97% and the activity at 0.0025 µM [1] was 93.8%. For the same molecule, the activity at 0.005 µM [1] was 78.2%, the activity at 0.013 µM [1] was 91.3% and the activity at 0.025 µM [1] was 85.2%. For the same molecule, the activity at 0.063 µM [1] was 72.1%, the activity at 0.125 µM [1] was 69.1% and the activity at 0.313 µM [1] was 48.9%. It also gave an activity at 0.625 µM [1] of 30.4%, an activity at 1.5 µM [1] of 15.7% and an activity at 3 µM [1] of 9.12%. For the same molecule, the activity at 15 µM [1] was 0.75%, the activity at 37.5 µM [1] was 1.46% and the activity at 75 µM [1] was 1.41%. For the same molecule, the “Log IC50 B. taurus complex I” value [1] was -0.51 µM, the LC50 (L1 wild-type C. elegans [2]) was 6.37 µM and the “Screen "Hit"” value (L1 wild-type C. elegans [3]; [6]) was “Y (hits were identified as compounds that reduced relative motility below 0.25 (75% reduction))”. The “C. elegans KCN Survival” value (L1 wild-type C. elegans [3]; [7]) was 1.002, the “C. elegans KCN Survival” value (L1 wild-type C. elegans [3]; Dose 0.39 µM) was 0.963 and the “C. elegans KCN Survival” value (L1 wild-type C. elegans [3]; Dose 1.56 µM) was 0.887. The “C. elegans KCN Survival” value (L1 wild-type C. elegans [3]; Dose 3.13 µM) was 0.828, the “C. elegans KCN Survival” value (L1 wild-type C. elegans [3]; Dose 6.25 µM) was 0.509 and the “C. elegans KCN Survival” value (L1 wild-type C. elegans [3]; Dose 12.5 µM) was 0.007. For the same molecule, the “C. elegans KCN Survival” value (L1 wild-type C. elegans [3]; Dose 25 µM) was 0.000, the “C. elegans KCN Survival” value (L1 wild-type C. elegans [3]; Dose 50 µM) was 0.000 and the “C. elegans KCN Survival” value (L1 wild-type C. elegans [3]; Dose 100 µM) was 0.000. For the same molecule, the LC50 [4, 8] was 58.5 µM, the viability at 15.6 µM [4, 10] was 100% and the viability at 31.3 µM [4, 10] was 97%. The viability at 62.5 µM [4, 10] was 42.4%, the viability at 125 µM [4, 10] was 3.7% and the viability at 250 µM [4, 10] was 3.3%. For the same molecule, the viability at 500 µM [4, 10] was 1.6%, the viability at 1000 µM [4, 10] was 1.3% and the LC50 [4, 9] was 58.5 µM.
